Source: patent US5447869A, “Method of detecting bitter or odorous substances and apparatus therefor” (Sogo Pharmaceutical Company Limited, priority 1987, dated 1995)
Read-outs that look alike come from different tables or passages of the source.

What was measured:
[1] = Adsorption from aqueous phase on polyvinyl alcohol film
[2] = Adsorption from aqueous phase on poly(methyl-L-glutamate) film
[3] = Adsorption from aqueous phase on uncoated crystal oscillator
[4] = Adsorption from aqueous phase on polystyrene film
[5] = gas phase
Description: At point B in FIG. 9, the coated crystal oscillator or crystal is removed from the cell into atmosphere with the result that the frequency reverts soon to the same as at point A in FIG. 9, at which the coated crystal oscillator or crystal is placed in the cell. […] In the determination of adsorbed amounts from frequency changes thus obtained, the adsorbed amount is represented in terms of partition coefficient obtained by dividing the adsorbed amount by the total weight of the odorous substance molecules actually existing in the gas phase in order to cancel differences in vapor pressure in the gas phase.

[6] = for Adsorbed amounts / Frequency Changes -ΔF: Example 9, 2C18 N^+ 2C1 /PSS^-, halothane 9.48×10^-4 M aqueous
Description: In FIG. 6, the immobilized bilayer film is cast on a silver-deposited electrode 2 of the crystal oscillator 1 [or on both sides of a silver-electrode-deposited piezoelectric crystal (9 MHz; AT-cut)] and dipped into deionized water in cell 3, bitter or odorous substances are injected thereinto as a solution thereof through an irritant-injecting device 4, frequency changes after the injection are measured by a frequency measuring means (not shown) constituting the crystal oscillator 1, and adsorbed amounts of bitter or odorous substances onto the immobilized bilayer film are determined from proportionality thereof to the frequency changes thus obtained.
The partition coefficient means a ratio of the adsorbed amount of an irritant such as the bitter or odorous substance or the like onto the immobilized bilayer film to an amount by weight of the irritant such as the bitter or odorous substance or the like in the aqueous solution of a constant volume.
Since frequency changes of 10 Hz or less are considered to be within errors in measurements, the concentration at the frequency change of 10 Hz is defined as a concentration threshold value.

tadpole [7] = assay: Anesthetic potency obtained by use of a tadpole; settings: in vivo
Description: In Table 3, potency is a value representing intensity of the anesthetics and is shown as values obtained by use of a tadpole.

tadpole [8] = assay: Anesthetic potency obtained by use of a tadpole; format: in vivo; settings: Table 6; potency converted to gaseous system; partial pressure ratio, methanol as 1.00
[9] = Example 11; CTAB^+ /PSS^-; halothane 9.48×10^-4 M
tadpole [10] = settings: cited from earlier work
[11] = Example 10; Cholesterylammonium poly(p-styrenesulfonate); halothane 9.48×10^-4 M
[12] = Comparative Example 6; Polyvinyl chloride, 45° C.; halothane 9.48×10^-4 M
[13] = Comparative Example 7, Polyvinyl alcohol, 45° C., halothane 9.48×10^-4 M
[14] = Comparative Example 8, PMLG, halothane 9.48×10^-4 M
[15] = Table 3, tadpole, intensity of the anesthetic
[16] = Comparative Example 5, Polystyrene, 45° C., halothane 9.48×10^-4 M
[17] = Table 6, concentration ratio of aqueous solution, methanol as 1.00

Compound: O=C1C[C@@H]2OCC=C3CN4CC[C@]56c7ccccc7N1[C@H]5[C@H]2[C@H]3C[C@H]46 [Strychnine, strychnine]
- Partition Coefficient ([1]; Table 2, coating: Polyvinyl alcohol film): 0.03 10^-3
- Partition Coefficient ([2]; Table 2, coating: Polymethyl-L-glutamate film): 0.02 10^-3
- frequency changes due to adsorption ([3]; Comparative Example 3, uncoated, regardless of temperature, FIG. 12): little or no frequency changes
- Partition Coefficient ([3]; Table 2, coating: None): 0.03 10^-3
- frequency changes due to adsorption ([4]; Comparative Example 4, polystyrene-coated, regardless of temperature, FIG. 12): very little frequency changes
- Partition Coefficient ([4]; Table 2, coating: Polystyrene film): 0.05 10^-3

Compound: CC(=O)/C=C/C1=C(C)CCCC1(C)C [β-ionone]
- frequency change in saturated vapor ([5]; Example 6, FIG. 9): the frequency rapidly decreases and then becomes constant soon
- reversibility of adsorption ([6]; 45° C., strychnine 58.3 μM, β-ionone 125 μM, FIG. 7, FIG. 8): reversible

Compound: CC1OC(C)OC(C)O1 (centres unmarked) [paraldehyde]
- Potency atm (tadpole [7]): 8.20 × 10^2

Compound: CCOCC [diethyl ether]
- Potency atm (tadpole [8]): 6.43

Compound: FC(F)(F)C(Cl)Br (centres unmarked) [halothane]
- Adsorbed amounts [1, 13]: 53 ng
- Frequency Changes -ΔF [1, 13]: 50 Hz
- Potency atm (tadpole [7]): 1.72 × 10^3
- adsorption amount versus film thickness ([5]; Example 20, 25° C., 2 μl halothane, FIG. 23): linearly increased
- Adsorbed amounts [2, 14]: 176 ng
- Frequency Changes -ΔF [2, 14]: 168 Hz
- Adsorbed amounts [9]: 249 ng
- Frequency Changes -ΔF [9]: 237 Hz
- Potency (tadpole [10]; [15]): 4.47 × 10^3
- Adsorbed amounts [11]: 82 ng
- Frequency Changes -ΔF [11]: 78 Hz
- Adsorbed amounts [12]: 74 ng
- Frequency Changes -ΔF [12]: 70 Hz
- Adsorbed amounts ([6]; 20° C.): 101 ng
- Frequency Changes -ΔF ([6]; 20° C.): 96 Hz
- Adsorbed amounts ([6]; 45° C.): 318 ng
- Frequency Changes -ΔF ([6]; 45° C.): 303 Hz
- adsorbed amount versus film thickness ([6]; Example 14, aqueous, 45° C., halothane 3.00×10^-4 M, FIG. 19): increased with increased film thickness
- Adsorbed amounts [4, 16]: 74 ng
- Frequency Changes -ΔF [4, 16]: 70 Hz

Compound: ClC(Cl)Cl [chloroform]
- Potency (tadpole [10]; [15]): 7.62 × 10^2
- Potency atm (tadpole [8]): 4.62 × 10^2

Compound: OCc1ccccc1 [benzylalcohol]
- Potency atm (tadpole [7]): 6.25 × 10^5
- Potency (tadpole [10]; [15]): 5.01 × 10^2

Compound: CC(C)=O [acetone]
- Potency (tadpole [10]; [15]): 3.47
- Potency (tadpole [10]; [17]): 3.47
- Potency atm (tadpole [8]): 1.76

Compound: CCCCO [1-butanol]
- Potency atm (tadpole [8]): 9.41 × 10^2

Compound: CCO [ethanol]
- Potency (tadpole [10]; [15]): 2.43
- Potency (tadpole [10]; [17]): 2.43
- Potency atm (tadpole [8]): 5.19

Compound: COC(F)(F)C(Cl)Cl [methoxyflurane]
- Potency atm (tadpole [7]): 1.82 × 10^4
- Potency (tadpole [10]; [15]): 4.86 × 10^3

Compound: CCCCCC [hexane]
- Potency (tadpole [10]; [15]): 6.75 × 10^4
- Potency atm (tadpole [8]): 5.21 × 10^4

Compound: CCCCCCCCCO [1-nonanol]
- Potency atm (tadpole [7]): 2.51 × 10^8
- Potency (tadpole [10]; [15]): 4.03 × 10^4

Compound: CCCCCCCCCCO [1-decanol]
- Potency (tadpole [10]; [15]): 1.00 × 10^5
- Potency atm (tadpole [8]): 1.11 × 10^9

Compound: CO [methanol]
- Potency (tadpole [10]; [15]): 1.00
- Potency (tadpole [10]; [17]): 1.00

Compound: CCCCC [pentane]
- Potency atm (tadpole [7]): 3.34 × 10^3
- Potency (tadpole [10]; [15]): 1.51 × 10^4

Compound: CCCCCCO [1-hexanol]
- Potency (tadpole [10]; [15]): 1.12 × 10^3

Compound: CCCCCCCCO [1-octanol]
- Potency atm (tadpole [7]): 1.21 × 10^7
- Potency (tadpole [10]; [15]): 7.93 × 10^3
